Results on 29 compounds are retold here after patent US20210087172A1, “FACTOR XIIa INHIBITORS” (UNIVESITY OF LEEDS, priority 2018, published 2021).

Structures are written as SMILES.

For orientation: Ki means a measure of affinity in units of concentration, obtained from inhibition or displacement. Read a low Ki as a stronger hold on the target.

Common to all, as to assay type: biochemical
For one assay, the target named is T1, FXIIa alpha (Human) (Homo sapiens, UniProt P00748).
T1 construct: FXIIa alpha
T1 sequence (P00748 373-615 limits assumed): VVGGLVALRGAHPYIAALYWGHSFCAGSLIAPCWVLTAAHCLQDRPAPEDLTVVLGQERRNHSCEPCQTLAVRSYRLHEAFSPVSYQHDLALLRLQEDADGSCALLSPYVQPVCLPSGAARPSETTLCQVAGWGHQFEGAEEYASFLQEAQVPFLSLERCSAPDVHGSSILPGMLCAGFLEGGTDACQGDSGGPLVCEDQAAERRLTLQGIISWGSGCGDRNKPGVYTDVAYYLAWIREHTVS
T1 sequence (P00748 20-372 partner limits assumed): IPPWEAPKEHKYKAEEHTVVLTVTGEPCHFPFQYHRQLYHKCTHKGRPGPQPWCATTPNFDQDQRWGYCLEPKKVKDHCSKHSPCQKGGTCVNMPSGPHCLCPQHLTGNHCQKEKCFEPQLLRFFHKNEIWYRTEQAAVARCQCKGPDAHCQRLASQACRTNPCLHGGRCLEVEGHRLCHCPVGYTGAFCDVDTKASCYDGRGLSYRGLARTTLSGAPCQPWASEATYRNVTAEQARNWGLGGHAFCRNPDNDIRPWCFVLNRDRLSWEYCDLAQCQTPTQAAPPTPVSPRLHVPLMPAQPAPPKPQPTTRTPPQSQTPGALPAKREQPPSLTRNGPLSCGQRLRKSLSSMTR
Nature of the assay: Determination of Factor XIIa inhibition, chromogenic substrate S-2302. The settings on record: 10 nM FXIIa, 450 μM S-2302, 37° C., pH 7.4; Ki converted from IC50. Here is the method: (§1) The activities of the compounds of the invention have been determined in vitro using the following assays protocols for the screening of activity of FXIa and other proteases. Each of these assays were performed in a purified system employing the use of chromogenic assays in microplate plate wells. Chromogenic peptide substrates mimicking natural protein substrates are attached via an amide bond to a chromogenic group. Paranitroaniline (pNA) is released from the peptide following catalyses by the proteolytic enzyme; the absorbance increases and can be monitored at 405 nm.
(§2) All compounds were dissolved in 100% (v/v) DMSO to a stock concentration of 10 mM, the highest concentration of compound used in each assay is 500 μM. The final concentrations of DMSO were 5% (v/v) in 50 mM Tris 137 mM NaCl pH 7.4. Where no test compound was added a final concentration of 5% DMSO was employed.
[…] activity was measured using a chromogenic substrate S-2302 (Chromogenix). Various concentrations of compound were incubated with 10 nM of FXIIa and incubated at 37° C. for 10 minutes in 50 mM Tris, 137 mM NaCl, pH 7.4, prior to the addition of a final concentration of 450 μM S-2302 chromogenic substrate. Kinetic readings at 405 nm were monitored every 12 secs for a total duration of 3 hours at 37° C. Gradients of initial rates were determined and employed to calculate IC50 values. Values of IC50 were converted to Ki values based on the formula:
(§3) Ki=IC50/(1+[Substrate]/Km)
The activity of the compounds of the invention has been categorised based on the Ki values, the categories being “*”, “**” and “***”. […] The category refers to compounds with a Ki value of 0.2 μM to 2 μM.

The target of the next assay is T2, Thrombin (human) (Homo sapiens, UniProt P00734).
T2 construct: FXa (5 nM) and thrombin (5 nM)
Nature of the assay: Determination of selectivity: thrombin chromogenic assay (GPR substrate). The settings on record: fold selectivity for FXIIa over thrombin; thrombin 5 nM, GPR 250 μM. Here is the method: as §1, §2
(§4) To determine selectivity of test compounds, these test compounds were assayed for inhibitory activity against other serine proteases including FXa and thrombin. Essentially compounds at increasing concentrations were incubated with each enzyme: FXa (5 nM) and thrombin (5 nM), for 10 mins at 37° C. followed the appropriate chromogenic substrate, S2765 (350 μM), and GPR (250 μM) respectively in 50 mM Tris, 137 mM NaCl, pH 7.4. Chromogenic substrates S2765 was from Chromogenix, and GPR from Bachem. Kinetic readings at 405 nm were monitored every 12 secs for a total duration of 3 hours at 37° C. Gradients of initial rates were determined and employed to calculate IC50 values. Values of IC50 were converted to Ki values based on the formula:
as §3
(§5) Where [Substrate] denotes the concentration of substrate used in the assay and Km is the determined value of each enzyme with its own substrate.
The fold selectivity for FXIIa over thrombin for the compounds of the invention has been categorised based on the fold selectivity values, the categories being “+”, “++” and “+++”. The category “+” refers to fold selectivity values less than 10. The category “++” refers to a fold selectivity value of 10 to 100. The category “+++” refers to fold selectivity values greater than 100.

The target of a further assay is FXa (human) (Homo sapiens, UniProt P00742). Nature of the assay: Determination of selectivity: FXa chromogenic assay (S2765 substrate). The settings on record: fold selectivity for FXIIa over FXa; FXa 5 nM, S2765 350 μM. Here is the method:
as §1, §2, §4, §3, §5
The fold selectivity for FXIIa over FXa for the compounds of the invention has been categorised based on the fold selectivity values, the categories being “o”, “oo” and “ooo”. The category “o” refers to fold selectivity values less than 10. The category “oo” refers to a fold selectivity value of 10 to 100. The category “ooo” refers to fold selectivity values greater than 100.

FXa (human), sequence (P00742 235-488 limits assumed): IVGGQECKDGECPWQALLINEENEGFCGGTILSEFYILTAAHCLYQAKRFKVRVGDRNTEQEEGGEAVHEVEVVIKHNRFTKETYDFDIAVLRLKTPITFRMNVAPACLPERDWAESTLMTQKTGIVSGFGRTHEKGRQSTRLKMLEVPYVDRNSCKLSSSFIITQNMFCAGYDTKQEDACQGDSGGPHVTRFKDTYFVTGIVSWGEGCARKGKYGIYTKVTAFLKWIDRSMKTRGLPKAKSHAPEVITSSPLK
FXa (human), sequence (P00742 41-179 partner limits assumed): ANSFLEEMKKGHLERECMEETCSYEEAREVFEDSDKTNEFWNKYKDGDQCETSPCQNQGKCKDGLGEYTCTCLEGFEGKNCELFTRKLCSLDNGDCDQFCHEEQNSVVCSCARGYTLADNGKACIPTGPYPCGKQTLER

Compound `N=C(N)c1ccc(CNC(=O)C2CCCCN2C(=O)C(CCc2ccccc2)NS(=O)(=O)Cc2ccccc2)cc1` (stereo not shown) [Compound M00556] yielded a Ki on FXIIa alpha (Human) of 200 to 2000 nM. Besides, the “Thrombin (human)/FXIIa alpha (human) fold selectivity” value (shortened to “Thrombin … (human) fold selectivity”) at Thrombin (human) was “+ (fold selectivity values less than 10)”. The “FXa (human)/FXIIa alpha (human) fold selectivity” value (from here on “FXa … (human) fold selectivity”) on FXa (human) is “o (fold selectivity values less than 10)”.
At FXIIa alpha (Human), `Nc1cc(CNC(=O)[C@@H]2CN(C(=O)OCc3ccccc3)CCN2C(=O)[C@H](N)CCc2ccccc2)ccn1` [Compound M00832] yielded a Ki above 2000 nM. Besides, the “Thrombin … (human) fold selectivity” value on Thrombin (human) is “++ (a fold selectivity value of 10 to 100)”. For the same compound, the “FXa … (human) fold selectivity” value on FXa (human) is on record as “oo (a fold selectivity value of 10 to 100)”.
Taken in the same sequence, the figures for `CN(C)[C@H](CCc1ccccc1)C(=O)N1CCN(C(=O)OCc2ccccc2)C[C@H]1C(=O)NCc1ccnc(N)c1` [Compound M00833] were above 2000 nM, “++ (a fold selectivity value of 10 to 100)” and “oo (a fold selectivity value of 10 to 100)”.
Regarding `COc1cc(CNC(=O)[C@@H]2CN(C(=O)OCc3ccccc3)CCN2C(=O)[C@H](N)CCc2ccccc2)ccc1CN` [Compound M00834], the Ki at FXIIa alpha (Human) is below 200 nM. For the same compound, the “Thrombin … (human) fold selectivity” value at Thrombin (human) was “+++ (fold selectivity values greater than 100)”. The “FXa … (human) fold selectivity” value on FXa (human) is reported as “ooo (fold selectivity values greater than 100)”.
On FXIIa alpha (Human), `NCc1ccc(CNC(=O)C2CN(c3ccccc3)CCN2C(=O)C(N)CCc2ccccc2)cc1` (stereo not shown) [Compound M00836] came in with a Ki above 2000 nM.
Consider `CS(=O)(=O)N1CCN(C(=O)[C@H](N)CCc2ccccc2)[C@H](C(=O)NCc2ccc(CN)cc2)C1` [Compound M00838, (2S)-1-[(2R)-2-amino-4-phenylbutanoyl]-N-{[4-(aminomethyl)phenyl]methyl}-4-methanesulfonylpiperazine-2-carboxamide], for which the inhibition constant Ki at FXIIa alpha (Human) was above 2000 nM. Moreover, the “Thrombin … (human) fold selectivity” value on Thrombin (human) is “+ (fold selectivity values less than 10)”. Moreover, the “FXa … (human) fold selectivity” value on FXa (human) is reported as “o (fold selectivity values less than 10)”.
Consider `NCc1ccc(CNC(=O)C2CN(C(=O)CCc3ccccc3)CCN2C(=O)C(N)CCc2ccccc2)cc1` (stereo not shown) [Compound M00840], for which the inhibition constant (Ki) on FXIIa alpha (Human) was above 2000 nM.
The compound `NCc1ccc(CNC(=O)C2CN(S(=O)(=O)CCc3ccccc3)CCN2C(=O)C(N)CCc2ccccc2)cc1` (stereo not shown) [Compound M00842] returned a Ki at FXIIa alpha (Human) above 2000 nM.
At FXIIa alpha (Human), `NCc1ccc(CNC(=O)C2CN(C(=O)Cc3ccccc3)CCN2C(=O)C(N)CCc2ccccc2)cc1` (stereo not shown) [Compound M00843] showed a Ki above 2000 nM. Moreover, at Thrombin (human), the “Thrombin … (human) fold selectivity” value is “+++ (fold selectivity values greater than 100)”. Besides, the “FXa … (human) fold selectivity” value on FXa (human) is “oo (a fold selectivity value of 10 to 100)”.
For the compound `NCc1ccc(CNC(=O)C2CN(C(=O)c3ccccc3)CCN2C(=O)C(N)CCc2ccccc2)cc1` (stereo not shown) [Compound M00844], on FXIIa alpha (Human), the Ki was above 2000 nM.
Same read-out and setting: to `NCc1ccc(CNC(=O)C2CN(C(=O)NCc3ccccc3)CCN2C(=O)C(N)CCc2ccccc2)cc1` (stereo not shown) [Compound M00847] belongs above 2000 nM; to `CN(C)C(=O)N1CCN(C(=O)C(N)CCc2ccccc2)C(C(=O)NCc2ccc(CN)cc2)C1` (stereo not shown) [Compound M00848], above 2000 nM; to `CC(=O)N1CCN(C(=O)C(N)CCc2ccccc2)C(C(=O)NCc2ccc(CN)cc2)C1` (stereo not shown) [Compound M00850], above 2000 nM.
`Cc1cc(CNC(=O)[C@@H]2CN(C(=O)OCc3ccccc3)CCN2C(=O)[C@H](N)CCc2ccccc2)cc(N)n1` [Compound M00858] displayed a Ki at FXIIa alpha (Human) above 2000 nM. The “Thrombin … (human) fold selectivity” value at Thrombin (human) is recorded as “++ (a fold selectivity value of 10 to 100)”. For the same compound, the “FXa … (human) fold selectivity” value at FXa (human) was “oo (a fold selectivity value of 10 to 100)”.
Compound `CC(C(=O)N1CCN(C(=O)C(N)CCc2ccccc2)C(C(=O)NCc2ccc(CN)cc2)C1)c1ccccc1` (stereo not shown) [Compound M00859] yielded a Ki at FXIIa alpha (Human) above 2000 nM.
The same measure, in the same setting: to `NCc1ccc(CNC(=O)C2CNCCN2C(=O)C(N)CCc2ccccc2)cc1` (stereo not shown) [Compound M00862] belongs above 2000 nM.
The compound `Cn1nnc2cc(CNC(=O)[C@@H]3CN(C(=O)Oc4ccccc4)CCN3C(=O)[C@H](N)CCc3ccccc3)ccc21` [Compound M00871] displayed a Ki on FXIIa alpha (Human) above 2000 nM. In addition, on Thrombin (human), the “Thrombin … (human) fold selectivity” value is “++ (a fold selectivity value of 10 to 100)”. Moreover, at FXa (human), the “FXa … (human) fold selectivity” value is reported as “oo (a fold selectivity value of 10 to 100)”.
For the compound `C#CCOC(=O)N1CCN(C(=O)C(N)CCc2ccccc2)C(C(=O)NCc2ccc3c(c2)nnn3C)C1` (stereo not shown) [Compound M00880], the Ki on FXIIa alpha (Human) is above 2000 nM.
`Cn1ccnc1COC(=O)N1CCN(C(=O)C(N)CCc2ccccc2)C(C(=O)NCc2ccc3c(c2)nnn3C)C1` (stereo not shown) [Compound M00883] yielded a Ki at FXIIa alpha (Human) above 2000 nM.
On the same count and under the same terms, as for `Cn1nnc2cc(CNC(=O)C3CN(c4ncccn4)CCN3C(=O)C(N)CCc3ccccc3)ccc21` (stereo not shown) [Compound M00891], the figure is above 2000 nM; as for `Cn1nnc2cc(CNC(=O)[C@@H]3CN(c4ccc5ncccc5c4)CCN3C(=O)[C@H](N)CCc3ccccc3)ccc21` [Compound M00940, (2S)-1-[(2R)-2-amino-4-phenylbutanoyl]-N-[(1-methyl-1H-1,2,3-benzotriazol-5-yl)methyl]-4-(quinolin-6-yl)piperazine-2-carboxamide], above 2000 nM.
Same read-out and setting: to `Cn1nnc2cc(CNC(=O)C3CN(C(=O)OCc4ccc(Cl)cc4)CCN3C(=O)C(N)CCc3ccccc3)ccc21` (stereo not shown) [Compound M00942] belongs above 2000 nM.
On the same count and under the same terms, to `NCc1ccc(CNC(=O)C2CC(O)CCN2C(=O)C(N)CCc2ccccc2)cc1` (stereo not shown) [Compound M05071] belongs above 2000 nM.
On to `NC(CCC(=O)N1CCCC1)C(=O)N1CCN(C(=O)OCc2ccccc2)CC1C(=O)NCc1ccnc(O)c1` (stereo not shown) [Compound M05263], for which, on FXIIa alpha (Human), the inhibitory constant (Ki) was above 2000 nM.
Same read-out and setting: as for `Cn1nnc2cc(CNC(=O)C3CN(C(=O)OCc4ccccc4)CCN3C(=O)C(N)C3Cc4ccccc4C3)ccc21` (stereo not shown) [Compound M05273], the figure is above 2000 nM; as for `NC(CCC(=O)N1CCCC1)C(=O)N1CCN(C(=O)OCc2ccccc2)CC1C(=O)NCc1ccc2cnccc2c1` (stereo not shown) [Compound M05275], above 2000 nM.
Compound `NC(CCC(=O)N1CCCC1)C(=O)N1CCN(C(=O)OCc2ccccc2)CC1C(=O)NCc1ccc2cnc(O)cc2c1` (stereo not shown) [Compound M05277] yielded an inhibitory constant (Ki) on FXIIa alpha (Human) above 2000 nM. For the same compound, the “Thrombin … (human) fold selectivity” value at Thrombin (human) was “++ (a fold selectivity value of 10 to 100)”.
On to `Cn1nnc2cc(CNC(=O)C3CN(C(=O)OCc4ccccc4)CCN3C(=O)C(N)c3cc4ccccc4o3)ccc21` (stereo not shown) [Compound M05286], for which the inhibition constant Ki on FXIIa alpha (Human) was above 2000 nM.
The same measure, in the same setting: to `Cc1cc2cc(CNC(=O)C3CN(C(=O)OCc4ccccc4)CCN3C(=O)C(N)CCC(=O)N3CCCC3)ccc2cn1` (stereo not shown) [Compound M05292] belongs above 2000 nM.
